{"source": "patent US20230391765A1", "about": "“HETEROBIFUNCTIONAL COMPOUNDS AS DEGRADERS OF ENL” (ICAHN SCHOOL OF MEDICINE AT MOUNT SINAI, priority 2020, published 2023)", "type_in_all_cases": "cell-based", "key": {"ENL [1]": {"molecular_target": "T1, ENL (Homo sapiens, UniProt Q03111)", "T1 construct": "Cells were lysed and expression of endogenous ENL was assessed by Western blot analysis; host or cells: MV4;11", "T1 sequence (Q03111 1-559)": "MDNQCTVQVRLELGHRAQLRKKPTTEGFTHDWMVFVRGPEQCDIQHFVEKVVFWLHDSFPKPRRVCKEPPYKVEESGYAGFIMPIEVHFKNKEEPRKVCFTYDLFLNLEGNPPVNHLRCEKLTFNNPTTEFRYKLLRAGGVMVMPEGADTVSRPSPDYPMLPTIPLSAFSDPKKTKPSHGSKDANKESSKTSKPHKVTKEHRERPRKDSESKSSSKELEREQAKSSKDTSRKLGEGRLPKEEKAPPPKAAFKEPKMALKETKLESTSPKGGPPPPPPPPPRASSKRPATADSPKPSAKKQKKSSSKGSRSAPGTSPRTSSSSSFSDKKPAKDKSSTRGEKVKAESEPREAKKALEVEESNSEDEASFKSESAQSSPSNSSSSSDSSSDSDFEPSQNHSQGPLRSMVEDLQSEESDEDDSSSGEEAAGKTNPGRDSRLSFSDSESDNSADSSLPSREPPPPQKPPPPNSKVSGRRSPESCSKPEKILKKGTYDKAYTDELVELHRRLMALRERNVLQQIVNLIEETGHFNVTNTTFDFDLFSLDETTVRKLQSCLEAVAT", "experiment": "Western blot of ENL protein levels in MOLM13 cells", "how_it_was_run": "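Leukemia cells (MOLM13, MV4;11, Jurkat) treated with degraders in DMSO at 0–10 μM for 6 h or 24 h, or at 4 μM (MV4;11) / 8 μM (MOLM13) over 12–36 h. ENL levels read by Western blot of total lysates, GAPDH/β-actin loading controls; DMSO vehicle control.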"}, "MOLM13 cells": {"test_system": "MOLM13 cells", "experiment": "Apoptosis assay (FITC Annexin V), MOLM13 cells", "conditions": "MOLM13 cells, 1, 2 and 4 μM for 24 h", "procedure": "Apoptotic cells were measured by the FITC Annexin V Apoptosis Detection Kit (BD Biosciences).\nMV4; 11 or MOLM13 cells were seeded at 0.2×10^6 cells/mL density. Cells were treated with DMSO or ENL degraders at indicated concentrations. Each treatment was done in triplicates. After 24 h treatment, cells were collected and washed with ice-cold PBS once and resuspended in 250 μL of 1× binding buffer containing 5 μL of FITC-Annexin V and PI (BD Biosciences). After 15 min incubation at room temperature in the dark, 250 μL of 1× binding buffer was added and flow cytometry analysis was performed."}, "GAS41": {"molecular_target": "T2, GAS41 (Homo sapiens, UniProt O95619)", "T2 construct": "host or cells: MV4;11", "T2 sequence (O95619 whole entry)": "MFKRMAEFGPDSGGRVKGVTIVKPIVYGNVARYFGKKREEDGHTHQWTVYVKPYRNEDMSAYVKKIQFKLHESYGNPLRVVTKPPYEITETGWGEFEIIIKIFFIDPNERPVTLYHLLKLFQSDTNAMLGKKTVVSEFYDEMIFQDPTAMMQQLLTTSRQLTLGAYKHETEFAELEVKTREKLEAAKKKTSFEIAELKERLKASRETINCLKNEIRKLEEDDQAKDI", "experiment": "Western blot of GAS41 protein level in MV4; 11 cells", "conditions": "11 cells, 0.3, 1, 3, 10 and 30 μM for 24 h", "procedure": "MV4; 11 cells were treated with LQ076-122, or LQ081-107 at 0.3, 1, 3, 10, and 30 μM for 24 h. DMSO treated cells were used as control. Cells were lysed and expression of ENL and GAS41 was assessed by Western analysis.\nAfter ENL degrader treatment, cells were collected, lysed, and total cell lysates were used for Western blot. The following primary antibodies were used: ENL (Cell Signaling Technology), GAS41 (Santa Cruz), GAPDH (Santa Cruz), β-actin (Sigma). Blots were detected using HRP-conjugated secondary antibodies."}, "ENL [2]": {"molecular_target": "T1, ENL", "experiment": "Western blot of ENL protein levels in MV4; 11 cells", "how_it_was_run": "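MV4;11 cells treated versus DMSO at 1 and 10 μM for 24 h or 6 h, or at 0.3-30 μM for 24 h; time course at 4 μM over 12-36 h. Proteasome dependence tested with 1 μM degrader ± 1 μM MG132 for 6 h. ENL (and GAS41) levels in total lysates assessed by Western blot with GAPDH/β-actin loading controls.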"}, "[3]": {"test_system": "ENL-dependent MOLM13 leukemia cells", "experiment": "Cell viability (CellTiter-Glo), MOLM13 cells", "conditions": "MOLM13 cells, 0.5, 1, 2 and 4 μM for 72 h", "procedure": "MV4; 11 (FIG. 13A), MOLM13 (FIG. 13B) and Jurkat (FIG. 13C) cells were seeded at 2×10^5 cells/mL density and treated with DMSO or indicated compounds 0.5, 1, 2 and 4 μM for 72 h. Cell viability was measured using CellTiter-Glo reagent (Promega) and relative cell viability was calculated by normalization to DMSO samples.\nMV4; 11 or MOLM13 cells were seeded at 0.2×10^6 cells/mL density. Cells were treated with DMSO or ENL degraders at indicated concentrations. Each treatment was done in triplicates. After 72 h treatment, 100 μL of cell suspension from each treatment was mixed with 25 μL of CellTiter-Glo reagent (Promega) and incubated for 10 min before the luminescence signals were detected on a plate reader."}, "ENL target genes": {"test_system": "ENL target genes", "experiment": "RT-qPCR of ENL target genes in MV4; 11 cells", "conditions": "11 cells, 1, 2 and 4 μM for 6, 12, 18 and 24 h", "procedure": "MV4; 11 cells were treated with DMSO, or LQ076-122 at 1, 2, and 4 μM for 6, 12, 18 and 24 h. RT-qPCR analysis was performed to detect the mRNA levels of selected ENL target genes.\nTotal RNA was extracted using the RNeasy Plus kit (Qiagen) and reverse-transcribed using the iScript cDNA Synthesis kit (Bio-Rad). RT-qPCR was performed using the Power SYBR Green PCR Master Mix (Applied Biosystems) on the CFX96 Real-Time PCR system (Bio-Rad). Gene expressions were calculated following normalization to 18s rRNA amounts using the comparative cycle threshold (Ct) method."}}}
{"smiles": "Cc1ncsc1-c1ccc(CNC(=O)[C@@H]2C[C@@H](O)CN2C(=O)[C@@H](NC(=O)CCCCCCCCCCNC(=O)c2ccc(C(=O)Nc3ccc4[nH]c(CN5CCC[C@@H]5C)nc4c3)cc2)C(C)(C)C)cc1", "note": "[LQ076-122, N^1-(11-(((S)-1-((2S,4R)-4-hydroxy-2-((4-(4-methylthiazol-5-yl)benzyl)carbamoyl)pyrrolidin-1-yl)-3,3-dimethyl-1-oxobutan-2-yl)amino)-11-oxoundecyl)-N^4-(2-(((S)-2-methylpyrrolidin-1-yl)methyl)-1H-benzo[d]imidazol-5-yl)terephthalamide]", "values": [{"measurement": "reduction of ENL protein levels", "setting": "ENL [1]; 0-8 μM for 24 h", "result": "reduced ENL protein levels in a concentration-dependent manner"}, {"measurement": "reduction of ENL protein levels, time course", "setting": "ENL [1]; 8 μM for 12, 16, 20, 24 and 36 h", "result": "reduced ENL protein levels in a time-dependent manner"}, {"measurement": "induction of apoptosis", "setting": "MOLM13 cells", "result": "induced apoptosis"}, {"measurement": "reduction of GAS41 protein level", "setting": "GAS41", "result": "but not the level of another YEATS domain-containing protein GAS41"}, {"measurement": "reduction of ENL protein levels", "setting": "ENL [2]; 11 cells, 0-8 μM for 24 h", "result": "reduced ENL protein levels in a concentration-dependent manner"}, {"measurement": "reduction of ENL protein levels, time course", "setting": "ENL [2]; 11 cells, 4 μM for 12, 16, 20, 24 and 36 h", "result": "reduced ENL protein levels in a time-dependent manner"}, {"measurement": "reduction of ENL protein levels", "setting": "ENL [2]; 11 cells, 10 μM, 24 h", "result": "effective in reducing ENL protein levels"}, {"measurement": "reduction of ENL protein level", "setting": "ENL [2]; 11 cells, 0.3, 1, 3, 10 and 30 μM for 24 h", "result": "selectively reduced the ENL protein level"}, {"measurement": "reduction of ENL protein levels", "setting": "ENL [2]; 11 cells, 0.3, 1, 3 and 10 μM for 12 and 24 h", "result": "reduced ENL protein levels in a concentration- and time-dependent manner"}, {"measurement": "suppression of cell growth (relative cell viability)", "setting": "[3]", "result": "selectively suppressed cell growth"}, {"measurement": "ENL target gene expression (mRNA levels)", "setting": "ENL target genes", "result": "reduced ENL target gene expression in a concentration- and time-dependent manner"}]}
